For 12 compounds, AC50, IC50 and EC50 results are on record in ChEMBL document CHEMBL1201862, “PubChem BioAssay data set” (2004).

Active and inactive are the calls of the source.

Assay [1] concerns the target T1, Adenosylmethionine-8-amino-7-oxononanoate aminotransferase (Mycobacterium tuberculosis, UniProt P9WQ81).
T1 sequence (P9WQ81 whole entry): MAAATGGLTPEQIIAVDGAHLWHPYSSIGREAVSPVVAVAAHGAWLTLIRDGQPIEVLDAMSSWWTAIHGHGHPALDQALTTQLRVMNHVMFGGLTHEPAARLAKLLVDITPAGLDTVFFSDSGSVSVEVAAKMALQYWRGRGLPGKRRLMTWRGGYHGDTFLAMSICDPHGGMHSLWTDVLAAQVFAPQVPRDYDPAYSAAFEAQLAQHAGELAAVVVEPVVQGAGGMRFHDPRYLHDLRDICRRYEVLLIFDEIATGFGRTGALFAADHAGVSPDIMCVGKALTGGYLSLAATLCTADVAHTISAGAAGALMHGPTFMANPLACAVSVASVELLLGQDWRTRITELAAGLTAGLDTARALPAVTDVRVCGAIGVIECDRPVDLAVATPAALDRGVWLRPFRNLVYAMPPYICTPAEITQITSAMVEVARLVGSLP
The assay can be described thus: Mycobacterium tuberculosis BioA enzyme inhibitor Measured in Biochemical System Using Plate Reader - 2163-02_Inhibitor_Dose_CherryPick_Activity. It counts as functional, Mycobacterium tuberculosis UT205.

Assay [2] has as its target T2, Fructose-bisphosphate aldolase (Mycobacterium tuberculosis, UniProt P9WQA3).
T2 sequence (P9WQA3 whole entry): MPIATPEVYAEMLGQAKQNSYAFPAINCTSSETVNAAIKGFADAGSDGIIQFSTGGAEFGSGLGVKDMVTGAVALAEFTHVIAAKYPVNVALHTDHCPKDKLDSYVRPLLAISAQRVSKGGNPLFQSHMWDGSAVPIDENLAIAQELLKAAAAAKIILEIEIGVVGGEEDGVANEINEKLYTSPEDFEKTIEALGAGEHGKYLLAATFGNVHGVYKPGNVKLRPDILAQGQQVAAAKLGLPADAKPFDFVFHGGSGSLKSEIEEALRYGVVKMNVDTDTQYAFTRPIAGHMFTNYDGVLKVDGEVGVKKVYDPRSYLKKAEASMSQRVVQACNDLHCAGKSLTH
Nature of the assay: Fluorescence-based biochemical high throughput dose response assay for inhibitors of the fructose-bisphosphate aldolase (FBA) of M. tuberculosis. It counts as functional.

Assay [3] can be described thus: Shn3 3'UTR reporter inhibitors, dose response, cell-based, Clone20 osteoblasts, firefly luciferase, cherry-picked (AID 624132).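 Note: firefly luciferase luminescence from reporter carrying the Shn3 3'UTR in osteoblasts.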 It is filed as functional.
Assay [4] is described as follows: Counterscreen for activators of the function of SWI/SNF related, matrix associated, actin dependent regulator of chromatin, subfamily a, member 2 (SMARCA2, BRM): Luminescence-based cell-based high throughput dose response assay to identify non-selective compounds using the VP16 reporter assay. It is filed as functional.
Assay [5] is described as follows: HepG2 cell cytotoxicity, dose response, cytotoxicity control for Shn3 inhibitor project, CellTiter-Glo, cherry-picked (AID 624134). It is filed as functional, cell-based. On the technique in general: Cellular ATP, detected with luciferase, serves as a proxy for viable cell number.
Assay [6] concerns the target SWI/SNF-related matrix-associated actin-dependent regulator of chromatin subfamily A member 2 (Homo sapiens, UniProt P51531). Nature of the assay: Luminescence-based cell-based high throughput dose response assay to identify activators of the function of SWI/SNF related, matrix associated, actin dependent regulator of chromatin, subfamily a, member 2 (SMARCA2, BRM). It is filed as functional.

Assay [7] in a line: Luminescence Cell-Based Dose Response HTS to Identify Inhibitors of 5'UTR Stem-Loop Driven Prion Protein mRNA Translation in H4 Neuroglioblastoma Cells. [Related pubchem assays: 1827 (Project Summary), 1813 (Primary HTS)]. It is filed as functional.
Assay [8] in a line: inhibitors of SNCA 5'UTR-driven reporter translation, confirmation, H4 neuroglioma cells, luminescence (AID 1988). It is filed as functional, cell-based.
Assay [9] can be described thus: Fluorescence-based cell-based high throughput dose response assay for inhibitors of the interaction of nucleotide-binding oligomerization domain containing 2 (NOD2) and the receptor-interacting serine-threonine kinase 2 (RIPK2). It counts as functional. The following applies: Homo sapiens.
A short description of assay [10]: control 3'UTR Renilla luciferase suppression, dose response, counter-screen for Shn3 inhibitor project, cell-based, Clone20-Shn3RL, cherry-picked (AID 624133). It is filed as functional. (In general: A counterscreen serves to expose hits that act by an unwanted route or on another target.)
The target of assay [11] is T3, DNA repair protein RAD52 homolog (Homo sapiens, UniProt P43351).
T3 sequence (P43351 whole entry): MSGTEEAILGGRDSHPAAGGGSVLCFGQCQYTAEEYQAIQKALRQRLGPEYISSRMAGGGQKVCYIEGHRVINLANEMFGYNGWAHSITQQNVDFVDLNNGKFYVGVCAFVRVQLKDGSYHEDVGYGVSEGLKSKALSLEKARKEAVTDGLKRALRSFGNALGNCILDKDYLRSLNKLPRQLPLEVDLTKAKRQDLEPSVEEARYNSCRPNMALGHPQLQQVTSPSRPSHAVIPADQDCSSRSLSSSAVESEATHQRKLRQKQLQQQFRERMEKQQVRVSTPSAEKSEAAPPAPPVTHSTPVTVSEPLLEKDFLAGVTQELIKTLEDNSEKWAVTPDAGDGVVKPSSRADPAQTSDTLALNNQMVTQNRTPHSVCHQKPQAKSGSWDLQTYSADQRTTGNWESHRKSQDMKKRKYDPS
It is filed as functional, biochemical.

The nature of assay [12]: inhibitors of firefly luciferase expression or activity, dose response, H4 neuroglioma cells, luminescence (AID 1990). It counts as functional, cell-based.
For assay [13], the target named is T4, Nuclear receptor subfamily 0 group B member 1 (Homo sapiens, UniProt P51843).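 Note: HEK293T cells transfected with SF-1 and DAX-1 plus StAR promoter luciferase reporter.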
T4 sequence (P51843 whole entry): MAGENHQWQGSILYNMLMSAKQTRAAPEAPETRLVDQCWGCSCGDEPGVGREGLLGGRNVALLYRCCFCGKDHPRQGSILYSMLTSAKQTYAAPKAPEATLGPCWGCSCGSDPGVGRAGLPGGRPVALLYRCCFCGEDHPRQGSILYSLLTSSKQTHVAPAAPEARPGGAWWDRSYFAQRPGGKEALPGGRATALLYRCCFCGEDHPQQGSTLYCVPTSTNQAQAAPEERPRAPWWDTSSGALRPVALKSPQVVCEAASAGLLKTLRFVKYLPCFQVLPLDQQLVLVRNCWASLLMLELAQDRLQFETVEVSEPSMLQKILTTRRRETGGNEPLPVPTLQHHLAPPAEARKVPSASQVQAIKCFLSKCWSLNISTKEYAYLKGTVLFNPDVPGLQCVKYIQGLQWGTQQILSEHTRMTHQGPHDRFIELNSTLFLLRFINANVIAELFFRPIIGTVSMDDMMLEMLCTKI
It is filed as functional, cell-based.

A further assay in a line: cells. It is filed as functional, cell-based.
Assay [14] addresses T5, Methionyl-tRNA synthetase, putative (Trypanosoma brucei brucei, UniProt Q38C91).
T5 sequence (Q38C91 whole entry): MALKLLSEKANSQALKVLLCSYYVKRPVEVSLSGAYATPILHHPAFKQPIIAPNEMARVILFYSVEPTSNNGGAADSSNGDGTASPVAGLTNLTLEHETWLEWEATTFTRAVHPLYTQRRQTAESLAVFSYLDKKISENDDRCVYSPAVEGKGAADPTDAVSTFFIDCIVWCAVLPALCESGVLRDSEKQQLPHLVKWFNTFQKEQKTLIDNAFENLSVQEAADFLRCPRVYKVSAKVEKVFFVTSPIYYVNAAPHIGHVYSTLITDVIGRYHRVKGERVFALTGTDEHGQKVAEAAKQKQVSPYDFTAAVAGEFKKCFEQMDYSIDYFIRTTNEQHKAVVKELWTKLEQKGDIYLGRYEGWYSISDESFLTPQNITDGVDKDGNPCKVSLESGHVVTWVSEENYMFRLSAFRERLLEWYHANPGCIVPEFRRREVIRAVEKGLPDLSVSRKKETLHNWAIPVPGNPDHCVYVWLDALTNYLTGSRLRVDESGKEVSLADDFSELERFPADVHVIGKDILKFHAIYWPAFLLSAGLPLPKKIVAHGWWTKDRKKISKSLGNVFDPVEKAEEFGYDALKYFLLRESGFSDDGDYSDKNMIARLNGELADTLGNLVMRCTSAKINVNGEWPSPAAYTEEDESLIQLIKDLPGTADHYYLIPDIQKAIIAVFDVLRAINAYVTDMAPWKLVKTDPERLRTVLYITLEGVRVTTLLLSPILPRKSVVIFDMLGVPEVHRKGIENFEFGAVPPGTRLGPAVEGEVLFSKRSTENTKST
It is filed as functional, Trypanosoma brucei brucei strain 927/4 GUTat10.1.

In assay [15] the target is T5, Methionyl-tRNA synthetase, putative. It is filed as functional, Trypanosoma brucei brucei strain 927/4 GUTat10.1. This is another data set of the same source.
Assay [16] can be described thus: Counterscreen for inhibitors of Trypanosoma brucei methionyl tRNA synthetase (MetRS): Luminescence-based cell-based high throughput dose response assay to identify compounds that are cytotoxic to Jurkat human T lymphocyte cells. It counts as functional.
Assay [17] deals with T6, Fatty acid synthase (Homo sapiens, UniProt P49327). Nature of the assay: FAS thioesterase domain inhibitors, dose response, biochemical, kinetic fluorescence intensity (AID 624326).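 Note: rate of fluorescence rise from hydrolysis of a fluorogenic O-methyl fluorescein ester substrate.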 It is filed as functional.
The target in assay [18] is T6, Fatty acid synthase. The assay can be described thus: FAS thioesterase domain inhibitors, dose response, biochemical, endpoint fluorescence intensity, uHTS hits (AID 624327).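 Note: fluorescence from hydrolysis of an O-methyl fluorescein acyl ester substrate by the enzyme.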 It counts as functional.
In assay [19] the target is T7, Corticotropin-releasing factor receptor 2/Corticotropin-releasing factor-binding protein (Homo sapiens, UniProt P24387+Q13324).
T7 sequence (Q13324 whole entry): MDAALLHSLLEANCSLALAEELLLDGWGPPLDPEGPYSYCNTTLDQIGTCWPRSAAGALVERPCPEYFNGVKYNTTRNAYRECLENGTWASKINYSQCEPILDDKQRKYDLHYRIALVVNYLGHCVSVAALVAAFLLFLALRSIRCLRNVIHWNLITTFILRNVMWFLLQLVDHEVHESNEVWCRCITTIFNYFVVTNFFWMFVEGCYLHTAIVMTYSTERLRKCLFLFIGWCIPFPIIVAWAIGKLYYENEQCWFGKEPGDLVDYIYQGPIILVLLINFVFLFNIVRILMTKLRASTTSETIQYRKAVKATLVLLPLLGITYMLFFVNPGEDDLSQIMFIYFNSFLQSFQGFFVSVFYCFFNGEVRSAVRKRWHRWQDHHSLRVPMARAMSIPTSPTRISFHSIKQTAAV
T7 sequence (P24387 whole entry): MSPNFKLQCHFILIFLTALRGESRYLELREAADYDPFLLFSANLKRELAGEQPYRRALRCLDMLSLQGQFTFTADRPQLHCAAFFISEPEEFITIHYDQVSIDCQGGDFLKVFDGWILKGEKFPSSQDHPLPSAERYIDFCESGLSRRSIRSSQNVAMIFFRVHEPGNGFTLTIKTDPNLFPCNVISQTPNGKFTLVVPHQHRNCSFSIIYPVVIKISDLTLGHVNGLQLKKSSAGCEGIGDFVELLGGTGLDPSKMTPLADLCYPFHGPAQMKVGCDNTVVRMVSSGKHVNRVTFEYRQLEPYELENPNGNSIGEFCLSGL
Nature of the assay: Dose Response confirmation of uHTS hits for small molecule antagonists of the CRF-binding protein and CRF-R2 receptor complex. It is filed as functional. The following applies: read-out: IC50_Mean.

Assay [20] addresses T7, Corticotropin-releasing factor receptor 2/Corticotropin-releasing factor-binding protein. Nature of the assay: activators of CRF receptor 2 with binding protein – uHTS hits, confirmation (AID 602473). It is filed as functional. To be noted: read-out: EC50_Mean.

T6 sequence (P49327 whole entry, the tested form may be a part): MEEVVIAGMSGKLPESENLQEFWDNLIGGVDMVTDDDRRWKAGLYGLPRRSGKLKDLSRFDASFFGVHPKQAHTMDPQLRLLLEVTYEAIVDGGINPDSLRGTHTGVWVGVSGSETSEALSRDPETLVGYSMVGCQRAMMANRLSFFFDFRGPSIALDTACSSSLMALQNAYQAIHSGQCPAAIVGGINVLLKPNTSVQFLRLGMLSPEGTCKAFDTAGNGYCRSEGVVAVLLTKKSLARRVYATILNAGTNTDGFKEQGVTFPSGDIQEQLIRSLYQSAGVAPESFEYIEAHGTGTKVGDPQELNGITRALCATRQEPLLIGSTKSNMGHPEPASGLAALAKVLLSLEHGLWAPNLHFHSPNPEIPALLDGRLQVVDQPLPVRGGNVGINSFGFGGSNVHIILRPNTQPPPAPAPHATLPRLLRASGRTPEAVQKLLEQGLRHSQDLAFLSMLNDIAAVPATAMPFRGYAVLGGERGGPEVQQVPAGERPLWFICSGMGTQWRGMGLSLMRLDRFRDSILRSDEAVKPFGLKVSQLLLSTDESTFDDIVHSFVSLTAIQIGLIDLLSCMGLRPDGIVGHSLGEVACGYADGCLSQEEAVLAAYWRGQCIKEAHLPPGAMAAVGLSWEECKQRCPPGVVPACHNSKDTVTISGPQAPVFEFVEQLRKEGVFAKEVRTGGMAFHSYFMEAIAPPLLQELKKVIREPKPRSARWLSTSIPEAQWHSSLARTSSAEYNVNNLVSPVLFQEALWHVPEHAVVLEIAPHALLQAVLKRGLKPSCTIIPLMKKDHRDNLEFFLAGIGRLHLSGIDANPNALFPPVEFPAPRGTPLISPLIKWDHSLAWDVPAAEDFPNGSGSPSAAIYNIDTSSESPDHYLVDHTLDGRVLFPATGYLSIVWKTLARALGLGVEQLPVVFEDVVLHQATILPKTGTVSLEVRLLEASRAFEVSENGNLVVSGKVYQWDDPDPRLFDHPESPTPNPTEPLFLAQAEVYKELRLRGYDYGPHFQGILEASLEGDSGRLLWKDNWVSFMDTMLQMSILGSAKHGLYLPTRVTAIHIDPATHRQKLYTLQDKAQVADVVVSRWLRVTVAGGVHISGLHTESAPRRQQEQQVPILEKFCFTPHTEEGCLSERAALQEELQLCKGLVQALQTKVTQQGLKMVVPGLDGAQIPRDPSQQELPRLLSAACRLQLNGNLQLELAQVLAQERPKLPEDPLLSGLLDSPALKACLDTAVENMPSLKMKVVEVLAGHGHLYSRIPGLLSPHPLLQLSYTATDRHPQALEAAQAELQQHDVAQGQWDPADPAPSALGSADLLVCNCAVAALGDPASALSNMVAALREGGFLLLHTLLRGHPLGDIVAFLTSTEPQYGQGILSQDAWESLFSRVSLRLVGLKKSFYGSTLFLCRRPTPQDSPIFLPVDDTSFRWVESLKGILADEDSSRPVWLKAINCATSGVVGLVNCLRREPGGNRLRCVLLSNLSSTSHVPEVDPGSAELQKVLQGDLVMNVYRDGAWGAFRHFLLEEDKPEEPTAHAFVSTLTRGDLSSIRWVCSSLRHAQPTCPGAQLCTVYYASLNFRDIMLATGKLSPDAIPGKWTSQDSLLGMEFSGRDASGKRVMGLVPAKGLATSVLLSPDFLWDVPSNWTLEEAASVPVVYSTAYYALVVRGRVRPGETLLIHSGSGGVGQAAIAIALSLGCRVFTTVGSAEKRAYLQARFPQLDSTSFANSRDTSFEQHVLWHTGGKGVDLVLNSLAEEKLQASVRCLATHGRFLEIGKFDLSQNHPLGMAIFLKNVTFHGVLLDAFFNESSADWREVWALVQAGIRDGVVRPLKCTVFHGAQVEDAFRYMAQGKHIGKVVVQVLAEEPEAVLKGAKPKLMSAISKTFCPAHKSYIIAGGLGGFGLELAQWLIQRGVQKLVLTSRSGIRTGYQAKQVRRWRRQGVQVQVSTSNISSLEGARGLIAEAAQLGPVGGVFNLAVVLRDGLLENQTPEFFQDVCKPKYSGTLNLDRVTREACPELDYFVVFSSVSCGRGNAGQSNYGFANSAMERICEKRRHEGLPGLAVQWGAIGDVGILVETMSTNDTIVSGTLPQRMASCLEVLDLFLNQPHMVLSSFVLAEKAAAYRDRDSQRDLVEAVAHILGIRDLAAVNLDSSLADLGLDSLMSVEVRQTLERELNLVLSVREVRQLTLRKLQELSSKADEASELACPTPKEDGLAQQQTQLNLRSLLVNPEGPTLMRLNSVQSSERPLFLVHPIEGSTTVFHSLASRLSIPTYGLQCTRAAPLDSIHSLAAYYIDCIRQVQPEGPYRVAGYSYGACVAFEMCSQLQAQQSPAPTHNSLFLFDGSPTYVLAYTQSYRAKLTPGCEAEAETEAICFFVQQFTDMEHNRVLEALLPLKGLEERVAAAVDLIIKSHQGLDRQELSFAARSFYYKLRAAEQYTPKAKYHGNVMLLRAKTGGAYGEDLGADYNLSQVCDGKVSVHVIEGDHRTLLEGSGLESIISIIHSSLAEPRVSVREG
Sequence of SWI/SNF-related matrix-associated actin-dependent regulator of chromatin subfamily A member 2 (P51531 whole entry): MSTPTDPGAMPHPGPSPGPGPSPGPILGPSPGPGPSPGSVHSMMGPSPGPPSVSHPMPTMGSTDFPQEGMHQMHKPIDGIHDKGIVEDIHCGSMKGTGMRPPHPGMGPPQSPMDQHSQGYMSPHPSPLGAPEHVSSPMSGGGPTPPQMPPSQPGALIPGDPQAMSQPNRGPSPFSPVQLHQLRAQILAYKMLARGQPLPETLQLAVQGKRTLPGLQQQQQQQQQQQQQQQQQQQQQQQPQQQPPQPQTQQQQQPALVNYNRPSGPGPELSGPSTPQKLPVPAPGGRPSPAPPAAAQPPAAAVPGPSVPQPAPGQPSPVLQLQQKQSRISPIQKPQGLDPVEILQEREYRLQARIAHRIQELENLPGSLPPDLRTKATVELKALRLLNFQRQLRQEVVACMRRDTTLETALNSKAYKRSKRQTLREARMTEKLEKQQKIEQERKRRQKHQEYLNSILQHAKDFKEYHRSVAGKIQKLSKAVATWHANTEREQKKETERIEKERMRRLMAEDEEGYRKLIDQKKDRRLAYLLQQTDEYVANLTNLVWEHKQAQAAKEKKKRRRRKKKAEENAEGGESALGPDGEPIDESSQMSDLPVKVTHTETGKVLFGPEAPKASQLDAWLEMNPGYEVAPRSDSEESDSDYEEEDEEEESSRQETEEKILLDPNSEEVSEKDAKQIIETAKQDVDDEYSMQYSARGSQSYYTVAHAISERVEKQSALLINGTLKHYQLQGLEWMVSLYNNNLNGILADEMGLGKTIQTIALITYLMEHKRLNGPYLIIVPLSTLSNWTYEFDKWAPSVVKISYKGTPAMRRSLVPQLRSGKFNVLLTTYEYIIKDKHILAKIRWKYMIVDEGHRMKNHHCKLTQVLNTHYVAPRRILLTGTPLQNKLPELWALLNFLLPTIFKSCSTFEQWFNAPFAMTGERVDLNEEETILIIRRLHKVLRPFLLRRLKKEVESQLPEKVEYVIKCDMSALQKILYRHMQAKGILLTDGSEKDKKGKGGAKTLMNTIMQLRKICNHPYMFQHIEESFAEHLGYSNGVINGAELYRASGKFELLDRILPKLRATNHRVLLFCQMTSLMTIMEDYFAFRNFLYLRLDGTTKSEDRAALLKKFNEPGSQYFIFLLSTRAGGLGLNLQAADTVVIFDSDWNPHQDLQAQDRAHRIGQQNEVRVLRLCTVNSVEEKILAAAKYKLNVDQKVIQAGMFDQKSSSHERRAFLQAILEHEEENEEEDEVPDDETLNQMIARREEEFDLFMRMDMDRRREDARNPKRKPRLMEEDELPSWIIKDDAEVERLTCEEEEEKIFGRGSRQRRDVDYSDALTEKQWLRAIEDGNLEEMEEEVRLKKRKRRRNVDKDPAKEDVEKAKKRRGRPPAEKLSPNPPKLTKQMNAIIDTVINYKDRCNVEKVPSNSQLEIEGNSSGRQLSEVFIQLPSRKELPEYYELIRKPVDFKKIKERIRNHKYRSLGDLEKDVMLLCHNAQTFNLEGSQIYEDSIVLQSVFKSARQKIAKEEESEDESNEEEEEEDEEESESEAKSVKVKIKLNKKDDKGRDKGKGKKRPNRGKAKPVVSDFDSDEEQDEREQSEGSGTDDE

As a reminder, the AC50 is the midpoint of the concentration-response curve, whichever way the signal moves. On to `O=C1CCCc2c1cc(C(=O)NCCCN1CCOCC1)c(=O)n2-c1ccc(Cl)cc1`, for which the AC50 in assay [1] is 10.1 µM (active).
Consider `Cc1ccccc1NC(=O)Cn1c(C)nc2ccc(N)cc2c1=O`, for which the IC50 in assay [2] is > 1.11 µM (active).
On to `COc1ccc(OC)c2sc(N(CCN(C)C)C(=O)/C=C/c3cccs3)nc12`, for which the concentration at half-maximal activity (AC50) in assay [3] is 12.8 µM (active); in assay [5], 19.1 µM (active); in assay [10] it was 25.8 µM (active); in assay [11] it was 10.6 µM (active). Further, the EC50 is > 91.1 µM (inactive) in assay [4]; > 91.1 µM (inactive) in assay [6]; 3.18 µM (active) in [7]; 6.88 µM (active) in [8]; 8.13 µM (active) in assay [12]. The IC50 in assay [9] was 13.3 µM (inactive).
On to `COc1ccc(C(=O)Nc2cccc(OC)c2)cc1`, for which the IC50 (in [13]; in “cells”) was > 67.6 µM (inactive) each time.
Take `N#Cc1c(-c2ccc(Br)cc2)cc(-c2cccnc2)nc1N`: the IC50 in assay [2] was 1.2 µM (active).
On to `O=C(Nc1ccc(NS(=O)(=O)c2ccccc2)cc1)c1cccnc1`, for which the AC50 in assay [1] is 5.75 µM (active).
On to `Cc1cccnc1NC(=O)COc1ccc2c(c1)CCC2`, for which the IC50 (in assay [13]; in the assay “cells”) was > 67.6 µM (inactive) each time.
For `N#C/C(=N\Nc1cc(Cl)cc(Cl)c1)c1nnc2n1CCCCC2`, the IC50 in assay [14] was 27.4 µM (inactive); in assay [15], 16.6 µM (inactive); in assay [16], 83.3 µM (inactive).
In the case of `O=C(C/C=N\OCc1ccc([N+](=O)[O-])cc1)Nc1ccc(Br)cc1`, the IC50 at Fatty acid synthase [17] is 7.6 µM (active); in assay [14] it was 1.25 µM (active); at Fatty acid synthase [18] it was 10.1 µM (active); in assay [15], 0.784 µM (active); in [16], 83.3 µM (inactive); in assay [19], > 47.1 µM (inactive). Moreover, the EC50 in assay [20] was > 53 µM (inactive).
For `CCOC(=O)C1CCN(C(=O)Nc2ccc3snnc3c2)CC1`, the AC50 in assay [1] is 0.85 µM (active).
In the case of `Oc1ccccc1/C=N/c1cccc2ccccc12`, the IC50 in [2] was > 3.33 µM (active).
On to `COCCn1c(C)cc(C(=O)COC(=O)c2ccc(Cl)c(S(N)(=O)=O)c2)c1C`, for which the IC50 (in assay [13]; in “cells”) was > 67.5 µM (inactive) in each case.
